Data: the kinase profiling compilation of Christmann-Franck et al. (2016)

Tests used:
Experiment in all cases: KINOMEscan competition binding
Conditions in all cases: compound 10.0 µM
[1] = target: AURKA (human) (UniProt O14965)
[2] = target: BMPR2 (human) (UniProt Q13873)
[3] = target: CDC42BPB (human) (UniProt Q9Y5S2)
[4] = target: CDK7 (human) (UniProt P50613)
[5] = target: CDKL2 (human) (UniProt Q92772)
[6] = target: CLK3 (human) (UniProt P49761)
[7] = target: CSNK1E (human) (UniProt P49674)
[8] = target: CaMK1 (human) (UniProt Q14012)
[9] = target: DAPK3 (human) (UniProt O43293)
[10] = target: DDR2 (human) (UniProt Q16832)
[11] = target: EIF2AK2 (human) (UniProt P19525)
Chain of EIF2AK2 (human) (P19525 whole entry, looked up): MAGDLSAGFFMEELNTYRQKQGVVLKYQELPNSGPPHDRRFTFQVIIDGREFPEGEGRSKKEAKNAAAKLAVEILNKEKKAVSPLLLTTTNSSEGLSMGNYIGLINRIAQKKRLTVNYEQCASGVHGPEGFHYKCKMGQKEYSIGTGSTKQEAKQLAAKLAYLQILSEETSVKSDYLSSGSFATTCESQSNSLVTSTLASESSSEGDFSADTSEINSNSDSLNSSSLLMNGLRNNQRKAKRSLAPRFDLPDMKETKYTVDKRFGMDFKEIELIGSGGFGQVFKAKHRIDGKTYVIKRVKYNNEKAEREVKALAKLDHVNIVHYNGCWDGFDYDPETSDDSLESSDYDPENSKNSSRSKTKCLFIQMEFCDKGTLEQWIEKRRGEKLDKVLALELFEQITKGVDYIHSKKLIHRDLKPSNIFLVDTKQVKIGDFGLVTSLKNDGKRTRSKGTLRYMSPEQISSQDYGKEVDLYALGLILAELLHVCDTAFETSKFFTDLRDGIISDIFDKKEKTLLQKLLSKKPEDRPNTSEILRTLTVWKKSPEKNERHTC

[12] = target: EPHA3 (human) (UniProt P29320)
[13] = target: EPHB1 (human) (UniProt P54762)
[14] = target: EPHB3 (human) (UniProt P54753)
[15] = target: HIPK1 (human) (UniProt Q86Z02)
[16] = target: IRAK3 (human) (UniProt Q9Y616)
[17] = target: JAK1 JH1 catalytic (human) (UniProt P23458)
[18] = target: JAK2 JH1 catalytic (human) (UniProt O60674)
[19] = target: MAP3K9 (human) (UniProt P80192)
[20] = target: MAP4K5 (human) (UniProt Q9Y4K4)
[21] = target: MAPK1 (human) (UniProt P28482)
[22] = target: MAPK12 (human) (UniProt P53778)
Chain of MAPK12 (human) (P53778 whole entry, looked up): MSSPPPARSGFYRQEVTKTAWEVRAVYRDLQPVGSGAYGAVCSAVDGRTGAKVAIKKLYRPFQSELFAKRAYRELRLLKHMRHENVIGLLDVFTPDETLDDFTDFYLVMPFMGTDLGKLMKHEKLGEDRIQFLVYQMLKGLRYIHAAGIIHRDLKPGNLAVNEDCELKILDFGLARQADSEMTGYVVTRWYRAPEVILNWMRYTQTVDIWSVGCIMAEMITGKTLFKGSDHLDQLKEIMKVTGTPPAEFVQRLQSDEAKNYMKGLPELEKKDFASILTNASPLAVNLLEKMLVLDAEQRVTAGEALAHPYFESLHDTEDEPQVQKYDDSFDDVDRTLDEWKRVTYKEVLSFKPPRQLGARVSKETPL

[23] = target: MAPK4 (human) (UniProt P31152)
[24] = target: MARK1 (human) (UniProt Q9P0L2)
[25] = target: MUSK (human) (UniProt O15146)
[26] = target: MYLK2 (human) (UniProt Q9H1R3)
[27] = target: NEK6 (human) (UniProt Q9HC98)
[28] = target: NEK7 (human) (UniProt Q8TDX7)
[29] = target: PHKG2 (human) (UniProt P15735)
[30] = target: PIM1 (human) (UniProt P11309)
[31] = target: PIP4K2B (human) (UniProt P78356)
[32] = target: PRKACA (human) (UniProt P17612)
[33] = target: PRKACB (human) (UniProt P22694)
[34] = target: RIOK2 (human) (UniProt Q9BVS4)
[35] = target: RIPK2 (human) (UniProt O43353)
[36] = target: ROS1 (human) (UniProt P08922)
[37] = target: RPS6KA6 KD1 (human) (UniProt Q9UK32)
Chain of RPS6KA6 KD1 (human) (Q9UK32 whole entry, looked up): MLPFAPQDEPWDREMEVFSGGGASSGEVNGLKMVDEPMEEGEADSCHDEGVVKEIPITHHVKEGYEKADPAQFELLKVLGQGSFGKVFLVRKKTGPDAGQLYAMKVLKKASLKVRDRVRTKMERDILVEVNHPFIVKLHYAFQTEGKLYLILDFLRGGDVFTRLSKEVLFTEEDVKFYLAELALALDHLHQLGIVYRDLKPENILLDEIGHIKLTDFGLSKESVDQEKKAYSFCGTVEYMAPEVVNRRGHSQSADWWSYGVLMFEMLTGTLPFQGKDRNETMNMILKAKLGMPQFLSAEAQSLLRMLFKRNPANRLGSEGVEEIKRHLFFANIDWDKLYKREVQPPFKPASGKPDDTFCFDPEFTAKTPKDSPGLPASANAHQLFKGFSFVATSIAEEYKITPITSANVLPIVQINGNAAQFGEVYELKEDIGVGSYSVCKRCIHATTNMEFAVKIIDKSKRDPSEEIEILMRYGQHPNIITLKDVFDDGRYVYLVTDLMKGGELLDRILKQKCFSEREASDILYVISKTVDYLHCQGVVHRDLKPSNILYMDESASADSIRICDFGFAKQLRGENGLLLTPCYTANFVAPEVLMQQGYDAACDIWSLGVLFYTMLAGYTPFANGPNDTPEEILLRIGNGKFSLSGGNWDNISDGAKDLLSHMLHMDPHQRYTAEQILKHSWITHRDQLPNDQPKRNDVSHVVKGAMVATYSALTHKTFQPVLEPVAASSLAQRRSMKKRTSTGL

[38] = target: SRC (human) (UniProt P12931)
[39] = target: TLK1 (human) (UniProt Q9UKI8)
Chain of TLK1 (human) (Q9UKI8 whole entry, looked up): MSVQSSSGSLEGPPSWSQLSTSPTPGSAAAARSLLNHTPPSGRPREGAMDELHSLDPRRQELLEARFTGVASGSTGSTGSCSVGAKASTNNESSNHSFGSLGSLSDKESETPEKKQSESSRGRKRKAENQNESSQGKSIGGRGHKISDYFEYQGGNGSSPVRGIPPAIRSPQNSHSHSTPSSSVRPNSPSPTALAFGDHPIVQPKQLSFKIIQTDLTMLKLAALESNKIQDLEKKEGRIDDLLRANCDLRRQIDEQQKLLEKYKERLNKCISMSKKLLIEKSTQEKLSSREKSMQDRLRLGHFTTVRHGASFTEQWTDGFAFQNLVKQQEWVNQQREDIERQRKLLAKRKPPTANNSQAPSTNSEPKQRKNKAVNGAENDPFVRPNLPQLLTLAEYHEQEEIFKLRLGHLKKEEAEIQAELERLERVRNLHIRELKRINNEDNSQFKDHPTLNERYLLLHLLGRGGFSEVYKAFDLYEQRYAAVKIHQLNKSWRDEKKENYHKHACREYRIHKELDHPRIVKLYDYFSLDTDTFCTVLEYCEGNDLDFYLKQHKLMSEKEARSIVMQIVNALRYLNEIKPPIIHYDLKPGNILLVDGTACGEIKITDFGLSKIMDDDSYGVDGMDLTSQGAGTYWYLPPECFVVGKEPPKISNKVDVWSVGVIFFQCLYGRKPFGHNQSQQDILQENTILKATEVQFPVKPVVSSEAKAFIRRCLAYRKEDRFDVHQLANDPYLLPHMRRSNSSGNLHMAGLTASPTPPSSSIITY

[40] = target: TSSK1B (human) (UniProt Q9BXA7)
Chain of TSSK1B (human) (Q9BXA7 whole entry, looked up): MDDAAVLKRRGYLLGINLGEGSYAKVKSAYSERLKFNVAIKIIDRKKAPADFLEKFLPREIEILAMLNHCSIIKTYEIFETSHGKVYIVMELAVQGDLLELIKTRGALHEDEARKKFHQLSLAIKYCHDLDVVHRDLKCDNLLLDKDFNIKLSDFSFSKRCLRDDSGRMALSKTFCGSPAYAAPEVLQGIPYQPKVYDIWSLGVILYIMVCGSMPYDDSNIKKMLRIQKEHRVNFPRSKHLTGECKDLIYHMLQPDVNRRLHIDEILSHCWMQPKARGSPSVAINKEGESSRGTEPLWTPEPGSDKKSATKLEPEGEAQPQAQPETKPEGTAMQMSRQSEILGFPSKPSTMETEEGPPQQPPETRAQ

Chain of CDC42BPB (human) (Q9Y5S2 whole entry, looked up): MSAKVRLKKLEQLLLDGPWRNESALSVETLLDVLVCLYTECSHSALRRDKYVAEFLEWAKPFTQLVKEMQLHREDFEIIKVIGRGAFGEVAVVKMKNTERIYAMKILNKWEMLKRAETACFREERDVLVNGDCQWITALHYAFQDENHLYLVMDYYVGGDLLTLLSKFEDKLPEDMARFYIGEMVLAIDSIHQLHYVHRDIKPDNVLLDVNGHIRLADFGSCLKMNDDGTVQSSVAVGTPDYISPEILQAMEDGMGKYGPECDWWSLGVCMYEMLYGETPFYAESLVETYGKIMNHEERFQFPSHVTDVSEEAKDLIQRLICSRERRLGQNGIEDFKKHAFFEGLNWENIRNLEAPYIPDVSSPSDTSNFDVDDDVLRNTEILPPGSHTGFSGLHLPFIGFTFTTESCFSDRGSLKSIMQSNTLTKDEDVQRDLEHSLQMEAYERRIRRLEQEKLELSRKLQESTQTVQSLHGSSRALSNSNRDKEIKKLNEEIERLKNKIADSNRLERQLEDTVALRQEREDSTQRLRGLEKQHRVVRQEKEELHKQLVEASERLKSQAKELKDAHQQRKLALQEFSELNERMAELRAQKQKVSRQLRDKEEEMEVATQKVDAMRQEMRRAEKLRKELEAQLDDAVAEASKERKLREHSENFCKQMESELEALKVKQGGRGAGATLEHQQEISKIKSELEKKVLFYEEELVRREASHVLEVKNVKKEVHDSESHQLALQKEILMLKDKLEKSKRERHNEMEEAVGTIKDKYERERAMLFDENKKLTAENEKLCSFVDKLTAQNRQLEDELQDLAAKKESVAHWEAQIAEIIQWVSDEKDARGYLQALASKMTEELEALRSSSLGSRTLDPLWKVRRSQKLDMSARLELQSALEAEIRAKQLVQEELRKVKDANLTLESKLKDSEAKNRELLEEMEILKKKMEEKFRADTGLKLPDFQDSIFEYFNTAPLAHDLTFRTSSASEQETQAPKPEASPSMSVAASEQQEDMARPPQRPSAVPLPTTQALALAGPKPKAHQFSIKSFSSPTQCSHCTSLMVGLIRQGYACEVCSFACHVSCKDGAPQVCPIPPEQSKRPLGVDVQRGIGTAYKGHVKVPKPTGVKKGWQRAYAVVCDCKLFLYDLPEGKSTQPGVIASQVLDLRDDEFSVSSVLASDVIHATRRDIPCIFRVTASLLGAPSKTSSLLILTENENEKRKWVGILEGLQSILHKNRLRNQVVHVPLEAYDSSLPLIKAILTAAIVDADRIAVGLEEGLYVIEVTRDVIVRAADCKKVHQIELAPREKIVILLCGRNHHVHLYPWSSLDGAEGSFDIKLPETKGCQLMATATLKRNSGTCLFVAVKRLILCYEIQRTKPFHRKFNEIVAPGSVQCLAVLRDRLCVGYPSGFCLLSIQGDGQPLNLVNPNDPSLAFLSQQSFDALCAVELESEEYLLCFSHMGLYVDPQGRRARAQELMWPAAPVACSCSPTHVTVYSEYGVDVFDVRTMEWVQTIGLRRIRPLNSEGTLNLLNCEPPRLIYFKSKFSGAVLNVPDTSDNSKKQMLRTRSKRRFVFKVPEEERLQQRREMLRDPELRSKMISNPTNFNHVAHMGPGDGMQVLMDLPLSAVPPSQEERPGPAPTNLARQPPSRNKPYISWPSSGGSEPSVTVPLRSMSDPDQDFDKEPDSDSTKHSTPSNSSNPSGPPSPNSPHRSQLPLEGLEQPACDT
Chain of CLK3 (human) (P49761 whole entry, looked up): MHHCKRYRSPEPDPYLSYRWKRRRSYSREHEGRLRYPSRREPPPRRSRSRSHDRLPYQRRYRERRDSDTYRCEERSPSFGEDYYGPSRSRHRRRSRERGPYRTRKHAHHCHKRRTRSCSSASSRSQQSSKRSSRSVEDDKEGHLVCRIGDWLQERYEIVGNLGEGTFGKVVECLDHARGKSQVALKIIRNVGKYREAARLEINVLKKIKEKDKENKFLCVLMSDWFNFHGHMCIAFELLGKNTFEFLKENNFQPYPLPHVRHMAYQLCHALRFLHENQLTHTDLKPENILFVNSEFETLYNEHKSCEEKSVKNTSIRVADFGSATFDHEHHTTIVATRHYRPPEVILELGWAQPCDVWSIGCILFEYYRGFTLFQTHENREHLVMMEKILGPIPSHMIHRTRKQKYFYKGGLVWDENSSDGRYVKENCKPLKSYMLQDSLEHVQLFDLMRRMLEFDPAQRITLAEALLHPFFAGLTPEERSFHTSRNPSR

## C[C@@H](Oc1cc(-n2cnc3ccc(CN4CCN(C)CC4)cc32)sc1C(N)=O)c1ccccc1C(F)(F)F
[1]
  kinase still bound, per cent of control: 100%
[2]
  kinase still bound, per cent of control: 97%
[3]
  kinase still bound, per cent of control: 100%
[4]
  kinase still bound, per cent of control: 33%
[5]
  kinase still bound, per cent of control: 90%
[6]
  kinase still bound, per cent of control: 91%
[7]
  kinase still bound, per cent of control: 100%
[8]
  kinase still bound, per cent of control: 90%
[9]
  kinase still bound, per cent of control: 15%
[10]
  kinase still bound, per cent of control: 77%
[11]
  kinase still bound, per cent of control: 76%
[12]
  kinase still bound, per cent of control: 100%
[13]
  kinase still bound, per cent of control: 99%
[14]
  kinase still bound, per cent of control: 100%
[15]
  kinase still bound, per cent of control: 40%
[16]
  kinase still bound, per cent of control: 38%
[17]
  kinase still bound, per cent of control: 100%
[18]
  kinase still bound, per cent of control: 87%
[19]
  kinase still bound, per cent of control: 17%
[20]
  kinase still bound, per cent of control: 68%
[21]
  kinase still bound, per cent of control: 100%
[22]
  kinase still bound, per cent of control: 95%
[23]
  kinase still bound, per cent of control: 100%
[24]
  kinase still bound, per cent of control: 100%
[25]
  kinase still bound, per cent of control: 100%
[26]
  kinase still bound, per cent of control: 61%
[27]
  kinase still bound, per cent of control: 95%
[28]
  kinase still bound, per cent of control: 66%
[29]
  kinase still bound, per cent of control: 43%
[30]
  kinase still bound, per cent of control: 3%
[31]
  kinase still bound, per cent of control: 5.8%
[32]
  kinase still bound, per cent of control: 100%
[33]
  kinase still bound, per cent of control: 89%
[34]
  kinase still bound, per cent of control: 65%
[35]
  kinase still bound, per cent of control: 92%
[36]
  kinase still bound, per cent of control: 84%
[37]
  kinase still bound, per cent of control: 0.6%
[38]
  kinase still bound, per cent of control: 100%
[39]
  kinase still bound, per cent of control: 71%
[40]
  kinase still bound, per cent of control: 19%

## OCCCNc1cc(-c2ccnc(Nc3cccc(Cl)c3)n2)ccn1
[1]
  kinase still bound, per cent of control: 100%
[2]
  kinase still bound, per cent of control: 100%
[3]
  kinase still bound, per cent of control: 100%
[4]
  kinase still bound, per cent of control: 100%
[5]
  kinase still bound, per cent of control: 14%
[6]
  kinase still bound, per cent of control: 100%
[7]
  kinase still bound, per cent of control: 100%
[8]
  kinase still bound, per cent of control: 100%
[9]
  kinase still bound, per cent of control: 100%
[10]
  kinase still bound, per cent of control: 100%
[11]
  kinase still bound, per cent of control: 100%
[12]
  kinase still bound, per cent of control: 100%
[13]
  kinase still bound, per cent of control: 100%
[14]
  kinase still bound, per cent of control: 100%
[15]
  kinase still bound, per cent of control: 4.6%
[16]
  kinase still bound, per cent of control: 100%
[17]
  kinase still bound, per cent of control: 100%
[18]
  kinase still bound, per cent of control: 100%
[19]
  kinase still bound, per cent of control: 100%
[20]
  kinase still bound, per cent of control: 100%
[21]
  kinase still bound, per cent of control: 100%
[22]
  kinase still bound, per cent of control: 100%
[23]
  kinase still bound, per cent of control: 100%
[24]
  kinase still bound, per cent of control: 100%
[25]
  kinase still bound, per cent of control: 100%
[26]
  kinase still bound, per cent of control: 100%
[27]
  kinase still bound, per cent of control: 100%
[28]
  kinase still bound, per cent of control: 100%
[29]
  kinase still bound, per cent of control: 100%
[30]
  kinase still bound, per cent of control: 100%
[31]
  kinase still bound, per cent of control: 100%
[32]
  kinase still bound, per cent of control: 100%
[33]
  kinase still bound, per cent of control: 100%
[34]
  kinase still bound, per cent of control: 100%
[35]
  kinase still bound, per cent of control: 100%
[36]
  kinase still bound, per cent of control: 100%
[37]
  kinase still bound, per cent of control: 100%
[38]
  kinase still bound, per cent of control: 100%
[39]
  kinase still bound, per cent of control: 100%
[40]
  kinase still bound, per cent of control: 100%
